Test results taken from ChEMBL document CHEMBL1201862, “PubChem BioAssay data set” (2004).
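Grown in 96-well plates, cells were treated for 48 hours with each compound at five concentrations. Insufficient inhibition: endpoint recorded as highest concentration tested. GI50 marks 50% less growth.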 Calls of active or inactive are those of the source. Rule as the data show it: active = GI50 up to about 1.1 µM and inactive = higher.

Tests used:
Assay in all cases: NCI tumour cell line growth inhibition, 48 h
SK-OV-3 = system: SK-OV-3
M14 = system: M14
HOP-92 = system: HOP-92
SF-539 = system: SF-539
HCT-116 = system: HCT-116
A549 = system: A549
UO-31 = system: UO-31
PC-3 = system: PC-3
T47D = system: T47D
BT-549 = system: BT-549
MOLT-4 = system: MOLT-4
SNB-19 = system: SNB-19
NCI-H460 = system: NCI-H460
IGROV-1 = system: IGROV-1
KM12 = system: KM12
UACC-62 = system: UACC-62
COLO 205 = system: COLO 205
SK-MEL-2 = system: SK-MEL-2
SK-MEL-28 = system: SK-MEL-28
NCI-H522 = system: NCI-H522
NCI-H23 = system: NCI-H23
786-0 = system: 786-0
OVCAR-4 = system: OVCAR-4
RXF 393 = system: RXF 393
CAKI-1 = system: CAKI-1
OVCAR-3 = system: OVCAR-3
EKVX = system: EKVX
MCF7 = system: MCF7
NCI/ADR-RES = system: NCI/ADR-RES
OVCAR-8 = system: OVCAR-8
SK-MEL-5 = system: SK-MEL-5
A498 = system: A498
U-251 = system: U-251
K562 = system: K562
HL-60 = system: HL-60
SN12C = system: SN12C
MDA-N = system: MDA-N
DU-145 = system: DU-145
SF-268 = system: SF-268
LOX IMVI = system: LOX IMVI
TK-10 = system: TK-10
ACHN = system: ACHN
HOP-62 = system: HOP-62
Malme-3M = system: Malme-3M
SW-620 = system: SW-620
OVCAR-5 = system: OVCAR-5
SNB-75 = system: SNB-75
MDA-MB-435 = system: MDA-MB-435
MDA-MB-231 = system: MDA-MB-231
SF-295 = system: SF-295
UACC-257 = system: UACC-257
HT-29 = system: HT-29
Hs-578T = system: Hs-578T
SR = system: SR
NCI-H226 = system: NCI-H226
HCT-15 = system: HCT-15
RPMI-8226 = system: RPMI-8226
HCC 2998 = system: HCC 2998
CCRF-CEM = system: CCRF-CEM

With `NS(=O)(=O)c1ccc(/N=N/c2ncccc2O)cc1` the GI50 (SK-OV-3) was > 100 µM (inactive), the GI50 (M14) was > 100 µM (inactive) and the GI50 (HOP-92) was > 100 µM (inactive). For the same compound, the GI50 (SF-539) was 55.6 µM (inactive), the GI50 (HCT-116) was 39.3 µM (inactive) and the GI50 (A549) was > 100 µM (inactive). The GI50 (UO-31) was > 100 µM (inactive), the GI50 (PC-3) was > 100 µM (inactive) and the GI50 (T47D) was > 100 µM (inactive). The GI50 (BT-549) was > 100 µM (inactive), the GI50 (MOLT-4) was 22.6 µM (inactive) and the GI50 (SNB-19) was > 100 µM (inactive). For the same compound, the GI50 (NCI-H460) was 69.3 µM (inactive), the GI50 (IGROV-1) was > 100 µM (inactive) and the GI50 (KM12) was 60.5 µM (inactive). For the same compound, the GI50 (UACC-62) was > 100 µM (inactive), the GI50 (COLO 205) was > 100 µM (inactive) and the GI50 (SK-MEL-2) was > 100 µM (inactive). The GI50 (SK-MEL-28) was > 100 µM (inactive), the GI50 (NCI-H522) was 44.9 µM (inactive) and the GI50 (NCI-H23) was 51.4 µM (inactive). For the same compound, the GI50 (786-0) was 53.1 µM (inactive), the GI50 (OVCAR-4) was 57.7 µM (inactive) and the GI50 (RXF 393) was > 100 µM (inactive). For the same compound, the GI50 (CAKI-1) was > 100 µM (inactive), the GI50 (OVCAR-3) was 33.7 µM (inactive) and the GI50 (EKVX) was > 100 µM (inactive). The GI50 (MCF7) was 57.9 µM (inactive), the GI50 (NCI/ADR-RES) was > 100 µM (inactive) and the GI50 (OVCAR-8) was 79.6 µM (inactive). For the same compound, the GI50 (SK-MEL-5) was > 100 µM (inactive), the GI50 (A498) was > 100 µM (inactive) and the GI50 (U-251) was > 100 µM (inactive). The GI50 (K562) was 40.2 µM (inactive), the GI50 (HL-60) was 41.1 µM (inactive) and the GI50 (SN12C) was 71.8 µM (inactive). The GI50 (MDA-N) was > 100 µM (inactive), the GI50 (DU-145) was 38.5 µM (inactive) and the GI50 (SF-268) was > 100 µM (inactive). The GI50 (LOX IMVI) was 77.4 µM (inactive), the GI50 (TK-10) was > 100 µM (inactive) and the GI50 (ACHN) was > 100 µM (inactive). For the same compound, the GI50 (HOP-62) was > 100 µM (inactive), the GI50 (Malme-3M) was > 100 µM (inactive) and the GI50 (SW-620) was 57.3 µM (inactive). For the same compound, the GI50 (OVCAR-5) was > 100 µM (inactive), the GI50 (SNB-75) was > 100 µM (inactive) and the GI50 (MDA-MB-435) was > 100 µM (inactive). For the same compound, the GI50 (MDA-MB-231) was > 100 µM (inactive), the GI50 (SF-295) was > 100 µM (inactive) and the GI50 (UACC-257) was > 100 µM (inactive). For the same compound, the GI50 (HT-29) was > 100 µM (inactive), the GI50 (Hs-578T) was > 100 µM (inactive) and the GI50 (SR) was 23.1 µM (inactive). For the same compound, the GI50 (NCI-H226) was > 100 µM (inactive), the GI50 (HCT-15) was over 100 µM and the GI50 (RPMI-8226) was > 100 µM (inactive).

In the case of `CCOC(=O)Nc1cc(NC(/C=N/NC(C)=O)C(=O)OCC)c(OC)cc1NC(C)=O` (configuration not stated), the GI50 (SK-OV-3) is reported as > 100 µM (inactive), the GI50 (M14) is reported as > 100 µM (inactive) and the GI50 (HOP-92) is reported as > 100 µM (inactive). For the same compound, the GI50 (HCT-116) was > 100 µM (inactive), the GI50 (A549) was > 100 µM (inactive) and the GI50 (UO-31) was > 100 µM (inactive). The GI50 (PC-3) was > 100 µM (inactive), the GI50 (T47D) was > 100 µM (inactive) and the GI50 (BT-549) was > 100 µM (inactive). The GI50 (MOLT-4) was > 100 µM (inactive), the GI50 (SNB-19) was > 100 µM (inactive) and the GI50 (NCI-H460) was > 100 µM (inactive). For the same compound, the GI50 (IGROV-1) was > 100 µM (inactive), the GI50 (KM12) was > 100 µM (inactive) and the GI50 (UACC-62) was > 100 µM (inactive). The GI50 (COLO 205) was > 100 µM (inactive), the GI50 (SK-MEL-2) was > 100 µM (inactive) and the GI50 (SK-MEL-28) was > 100 µM (inactive). The GI50 (NCI-H23) was > 100 µM (inactive), the GI50 (786-0) was > 100 µM (inactive) and the GI50 (HCC 2998) was > 100 µM (inactive). For the same compound, the GI50 (OVCAR-4) was > 100 µM (inactive), the GI50 (RXF 393) was > 100 µM (inactive) and the GI50 (CAKI-1) was > 100 µM (inactive). For the same compound, the GI50 (OVCAR-3) was > 100 µM (inactive), the GI50 (EKVX) was > 100 µM (inactive) and the GI50 (MCF7) was > 100 µM (inactive). For the same compound, the GI50 (NCI/ADR-RES) was > 100 µM (inactive), the GI50 (OVCAR-8) was > 100 µM (inactive) and the GI50 (SK-MEL-5) was > 100 µM (inactive). The GI50 (A498) was > 100 µM (inactive), the GI50 (U-251) was > 100 µM (inactive) and the GI50 (K562) was > 100 µM (inactive). For the same compound, the GI50 (SN12C) was > 100 µM (inactive), the GI50 (MDA-N) was > 100 µM (inactive) and the GI50 (DU-145) was > 100 µM (inactive). The GI50 (SF-268) was > 100 µM (inactive), the GI50 (TK-10) was > 100 µM (inactive) and the GI50 (ACHN) was > 100 µM (inactive). The GI50 (HOP-62) was > 100 µM (inactive), the GI50 (Malme-3M) was > 100 µM (inactive) and the GI50 (SW-620) was > 100 µM (inactive). The GI50 (OVCAR-5) was > 100 µM (inactive), the GI50 (SNB-75) was > 100 µM (inactive) and the GI50 (MDA-MB-435) was > 100 µM (inactive). The GI50 (MDA-MB-231) was > 100 µM (inactive), the GI50 (SF-295) was > 100 µM (inactive) and the GI50 (UACC-257) was > 100 µM (inactive). The GI50 (HT-29) was > 100 µM (inactive), the GI50 (CCRF-CEM) was > 100 µM (inactive) and the GI50 (Hs-578T) was > 100 µM (inactive). For the same compound, the GI50 (SR) was > 100 µM (inactive), the GI50 (NCI-H226) was > 100 µM (inactive) and the GI50 (HCT-15) was over 100 µM. For the same compound, the GI50 (RPMI-8226) was > 100 µM (inactive).
